{
  "source": "patent US20180064712A1",
  "about": "“METHODS OF REDUCING IMMUNE CELL ACTIVATION AND USES THEREOF” (Washington University, priority 2016, published 2018)",
  "key": {"IL-15 TM cells [1]": {"test_system": "IL-15 TM cells", "experiment": "ECAR after αCD3/28 bead stimulation with or without Mdivi-1", "format": "cell-based, mice", "conditions": "αCD3/28-conjugated beads, 10 μM Mdivi-1 vs control", "from_the_text": "(§1) FIG. 6A, FIG. 6B, FIG. 6C, FIG. 6D, FIG. 6E, FIG. 6F, FIG. 6G, FIG. 6H, FIG. 6I, FIG. 6J, FIG. 6K, FIG. 6L, FIG. 6M, and FIG. 6N depict graphs and images showing that mitochondrial cristae remodeling signals metabolic pathway engagement. (FIG. 6A) Basal ECAR of OT-I Opa1^+/+ and Opa1^−/− IL-2 TE cells (left) and day 7 TE cells isolated ex vivo after adoptive transfer from LmOVA infection (right). Data combined from 2-3 experiments (*p=0.0412, ***p<0.0001). (FIG. 6B) OCR at baseline and after indicated drugs, representative of 2 experiments shown as mean±SEM, and (FIG. 6C) D-Glucose-^13C1,2 trace analysis of OT-I Opa1^+/+ and Opa1^−/− IL-2 TE cells. Each lane represents separate mice with a technical replicate. […] (FIG. 6K) IL-15 TM cell, (FIG. 6L, FIG. 6M) bone marrow-derived dendritic cell (BM-DCs) and macrophage (BM-Macs) % ECAR measured at baseline and after media, αCD3/CD28-conjugated bead, LPS, or LPS+IFN-γ injection as indicated. […]\n(§2) To more directly test this idea, we assessed ECAR of IL-15 TM cells that were stimulated with αCD3/28-conjugated beads in the presence or absence of Mdivi-1. […] We stimulated bone marrow derived dendritic cells (BM-DCs) and macrophages (BM-Macs) with lipolysaccharide (LPS) with or without interferon (IFN)-γ in the presence or absence of Mdivi-1 and measured ECAR. […]"}, "IL-15 TM cells [2]": {"test_system": "IL-15 TM cells", "experiment": "EM analysis of mitochondrial cristae after stimulation with or without Mdivi-1", "format": "cell-based, mice", "conditions": "IL-15 TM cells activated with αCD3/CD28-conjugated beads or PMA and ionomycin, presence or absence of Mdivi-1", "from_the_text": "as §1, with “replicate. (FIG. 6D) EM analysis of mitochondrial cristae from TE and TM cells isolated after LmOVA infection and (FIG. 6E) in vitro cultured IL-2 TE and TM cells. Data representative of 2 experiments, scale bar=0.25 μm.” for “replicate.”\nTo more thoroughly examine this idea, we assessed cristae morphology in TE and TM cells by EM following TCR stimulation. […]"}, "BM-Macs": {"test_system": "BM-Macs", "experiment": "intracellular Nos2 protein by flow cytometry", "format": "cell-based, mice", "conditions": "stimulated BM-Macs, Mdivi-1 treated"}, "[3]": {"test_system": "Bone marrow derived macrophages (BM-Macs)", "experiment": "ECAR after LPS with or without IFN-γ stimulation with or without Mdivi-1, macrophages", "format": "cell-based, mice", "conditions": "BM-Macs following stimulation with LPS with or without IFN-γ, 10 μM Mdivi-1", "from_the_text": "as §1, §2"}, "mitochondrial fission": {"test_system": "mitochondrial fission", "conditions": "as disclosed in Cassidy-Stone et al. Developmental Cell 2008; cited from earlier work"}, "[4]": {"test_system": "bone marrow derived dendritic cells (BM-DCs)", "experiment": "ECAR after LPS stimulation with or without Mdivi-1, dendritic cells", "format": "cell-based, mice", "conditions": "BM-DCs following stimulation with LPS, 10 μM Mdivi-1", "from_the_text": "as §1, §2"}},
  "data": [
    {"smiles": "COc1cc(-n2c(=S)[nH]c3ccccc3c2=O)c(Cl)cc1Cl", "note": "[Mdivi-1]", "values": [
      {"measurement": "aerobic glycolysis (ECAR)", "setting": "IL-15 TM cells [1]", "result": "did not robustly increase aerobic glycolysis"},
      {"measurement": "cristae morphology by EM", "setting": "IL-15 TM cells [2]", "result": "intermembrane space widening over time in control cells in comparison to drug treated cells"},
      {"measurement": "nitric oxide synthase 2 (Nos2) protein expression", "setting": "BM-Macs", "result": "significantly decreased"},
      {"measurement": "aerobic glycolysis (ECAR)", "setting": "[3]", "result": "curtailed"},
      {"measurement": "efficacy relative to Mdivi-1 as mitochondrial fission inhibitor", "setting": "mitochondrial fission", "result": "full efficacy"},
      {"measurement": "aerobic glycolysis (ECAR)", "setting": "[4]", "result": "curtailed"}
    ]}
  ]
}
